The source of these data is US20210379112A1, “STEM CELL THERAPY” (PLASTICELL LIMITED, priority 2018, published 2021).

The subject of one experiment is UCB derived CD133+ cells. Description: Ex vivo expansion of umbilical cord blood CD133+ cells (flow cytometry, counting beads). It counts as cell-based, human. To be noted: for fold expansion of total nucleated cells (TNC) compared to cells grown in basal media / fold expansion of HSC compared to cells grown in basal media / fold expansion of HSC (Lin−, CD38−, CD34+, CD45RA−, CD133+, CD90+, CD49f+) above basal media containing cytokines: UCB cells; for fold expansion of total nucleated cells (TNC) compared to cells grown in basal media: 5 days culture, vs basal media with cytokines, WR1065 added 16-20 h before harvest; for fold expansion of HSC compared to cells grown in basal media / fold expansion of HSC (Lin−, CD38−, CD34+, CD45RA−, CD133+, CD90+, CD49f+) above basal media containing cytokines: 5 days; for fold expansion of HSC compared to cells grown in basal media: result in words, FIG. 7-12; for fold expansion of HSC (Lin−, CD38−, CD34+, CD45RA−, CD133+, CD90+, CD49f+) above basal media containing cytokines: scriptaid 1 μM, WR1065 100 μM, FIG. 3. The source says: Human UCB units were collected with written informed pre-consent and ethical approval from Oxford and Berkshire National Research Ethical Committees and studies conducted with approval of the NHSBT research committee. UCB mononuclear cells (MNC) were isolated by density gradient centrifugation on lymphocyte separation medium 1077 (PAA Laboratories, Pasching, Austria; density<1.077 g/ml). CD133+ cells were isolated from the MNC with immunomagnetic beads (Miltenyi Biotec, Germany). After isolation, the cells were cryopreserved in 10% DMSO in FCS (fetal calf serum) and stored at −150° C. in aliquots of 1×10^5 cells/vial. Cells were analysed for the purity of the isolation with flow cytometry on a BD LSR II (BD Biosciences, CA) using CD34-APC, CD133-PE and the appropriate isotype controls (all Miltenyi Biotec). Bone marrow derived CD133+ cells were obtained commercially from Lonza and peripheral blood CD133+ cells were isolated using immunomagnetic beads as above from total peripheral blood mononuclear cells obtained commercially from Lonza Biologies.
Vials from 2 or 3 donors were thawed and pooled in StemSpan ACF media (Stem Cell Technologies) containing 100 ng/mL SCF, 100 ng/mL FLT3LG and 20 ng/mL TPO (all from Miltenyi Biotec). After counting, cells were plated in 96 well round bottom suspension plates at 20,000 cells/well in the above media. Cells were allowed to recover overnight in these conditions in a 37° C. humidified incubator with 5% CO2.
The next day cells were harvested from the plates counted, and seeded into 24 well Nanex plates (Compass Biomedical) or standard tissue culture treated plates at 2500 cells/well in 1 mL basal media (StemSpan ACF with 100 ng/mL SCF, 100 ng/mL FLT3LG and 20 ng/mL TPO) containing an HDAC inhibitor (for most experiments scriptaid was used at a concentration of 1 μM). An aliquot of cells was used for CFU analysis and another for flow cytometry analysis.
After 3 days in culture the media was either replaced or supplemented with fresh media with the cytokines (SCF, TPO and FLT3LG) and the HDAC inhibitors (scriptaid 1 μM). Sixteen to twenty hours prior to harvest WR1065 was added at a concentration of 100 μM. After total of 5 days in expansion, cells are harvested, counted and analysed by flow cytometry.
Cells were harvested, washed and stained in 3% FBS in PBS using a panel of pre-conjugated antibodies. Cells were incubated with antibodies on ice for 30 min, then washed twice in 3% FBS in PBS and resuspended in 250 uL of above buffer before being analysed using a BD Canto II flow cytometer. [Antibody panel was as follows: 5 Lin custom cocktail (CD235a, CD4, CD10, CD11b and CD19) APC-Vio770, CD38-PE-Vio770, CD34-PerCP-Vio700, CD133-PE, CD45RA-VioBlue, CD49f-FITC, CD90-APC (all from Miltenyi Biotec).]
Cell number was measured using flow cytometry with the aid of counting beads (CountBright beads Life Technologies).
(A flow cytometer gives signals particle by particle.)

Experiment [1] deals with bone marrow derived CD34+ cells. To be noted: pre-treatment of bone marrow derived CD34+ cells, in vitro; background; cited from earlier work.
A further experiment relates to irradiated NSG mice. Description: Repopulation capacity of expanded cord blood cells in immuno-compromised NSG mice (secondary recipients). Conditions: secondary recipient mice, bled at week 8; mice received cord blood cells expanded ex vivo with the substance; FIG. 15. How it is done:
The effect of different ex vivo expansion protocols on the ability of the cells to repopulate bone marrow in vivo was investigated. Cells were obtained from cord blood and four cell preparations were produced—1. Unexpanded cells, 2. Cells expanded in the presence of vehicle, 3. Cells expanded in the presence of scriptaid (expanded+SS—FIG. 15), 4. Cells expanded in the presence of scriptaid and WR1065 (expanded+SW—FIG. 15). These cell preparations were then injected into irradiated adult (<8 weeks) male NSG (NOD.Cg-Prkdc^scid II2rcf^Im1Wjl/SzJ) mice. Flow cytometry analysis was performed on blood samples taken at week 15 (CD45^hu & CD45^mu only) to identify animals with evidence of clear engraftment (human CD45+ cells in the blood at week 12, and week 15 human CD45+ count above 1%). Ten of the animals with human CD45+ count above 1%, were used as donors for 10 secondary recipients in one to one manner. At week 20 after cell administration the primary animals were sacrificed. Bone marrow samples were harvested from femurs and tibias and the cells were washed before being counted. 50% of the recovered cells were injected into secondary irradiated animals. In this manner the long term engraftment capabilities of the expanded cells could be determined. The secondary animals were bled at week 8 and whole blood samples analysed by FACs for evidence of engraftment. […]

Where [2] appears, read: UCB cells from three separate donors and a pooled sample, FIG. 13.

`Cc1cc(C)cc(C(=O)NOCCCCCC(=O)NO)c1` [LMK235]: in the experiment with UCB derived CD133+ cells, the “fold expansion of total nucleated cells (TNC) compared to cells grown in basal media” value (“fold expansion of total nucleated cells” for short) is recorded as “slightly lower” and the “fold expansion of HSC compared to cells grown in basal media” value is listed as “significantly increased”.
With `Nc1cc(F)ccc1NC(=O)/C=C/c1cnn(C/C=C/c2ccccc2)c1` [RGFP966], in the experiment on UCB derived CD133+ cells, the “fold expansion of total nucleated cells” value is recorded as “increase” and the “fold expansion of HSC compared to cells grown in basal media” value is listed as “similar”.
The corresponding values for `CN1CCc2c(c3ccccc3n2Cc2ccc(C(=O)NO)cc2)C1` [Tubastatin A] are “similar” and “significantly increased”.
On to `NCCCNCCS` [WR1065], for which the “enhancement of formation of CFU-GEMM and BFU-E colonies” value in experiment [1] was at most 38 fold. In addition, in the experiment on UCB derived CD133+ cells, the “fold expansion of HSC (Lin−, CD38−, CD34+, CD45RA−, CD133+, CD90+, CD49f+) above basal media containing cytokines” value is “around 3 fold”.
On to `Cn1cc(CNCC2CCN(c3ncc(C(=O)NO)cn3)CC2)c2ccccc21` [quisinostat], for which, in the experiment with UCB derived CD133+ cells, the “fold expansion of total nucleated cells” value is recorded as “slightly lower” and the “fold expansion of HSC compared to cells grown in basal media” value is recorded as “significantly increased”.
Regarding `O=C(CCCCCN1C(=O)c2cccc3cccc(c23)C1=O)NO` [scriptaid], in the experiment on irradiated NSG mice, the “average frequency of human CD45+ cells in whole blood, percentage of viable singlets” value turned out to be 0.04%. Also, the “fold expansion of HSC compared to cells cultured in basal media on different culture surfaces” value in the experiment on UCB derived CD133+ cells (Nanex scaffolds, TC treated Corning 24 well plates, suspension Greiner Bio 24 well plates, effect similar across surfaces, FIG. 14) is listed as “significantly increased”. Further, in the experiment on UCB derived CD133+ cells (setting [2]), the “fold expansion of HSC compared to cells cultured on basal media, average” value was determined as 30 fold and the “fold expansion of HSC compared to cells cultured on basal media, range” value is on record as 10-55 fold. In addition, in the experiment with UCB derived CD133+ cells, the “fold expansion of total nucleated cells” value is on record as “slightly reduced” and the “fold expansion of HSC (Lin−, CD38−, CD34+, CD45RA−, CD133+, CD90+, CD49f+) above basal media containing cytokines” value is on record as “approximately 10 fold”. Further, the “proportion of CD133+/CD34+ cells compared to cells grown on cytokines alone” value with UCB derived CD133+ cells (after 5 days in culture) is reported as “increase”.
